Measured values: ChEMBL document CHEMBL5143583, “Discovery of pyrroledione analogs as potent transient receptor potential canonical channel 5 inhibitors” (Bioorg Med Chem Lett, 2022)
Active and inactive are the calls of the source. No cut-off for these calls is given here.

Assays:
[1] = target: T1, Short transient receptor potential channel 5 (Homo sapiens, UniProt Q9UL62); assay: Inhibition of TRPC5 channel (unknown origin) expressed in HEK293 cells assessed as inhibition of EA-evoked Ca2+ entry by measuring reduction in intracellular Ca2+ level by Fluo-4 dye based FLIPR assay; type: cell-based
T1 sequence (Q9UL62 whole entry): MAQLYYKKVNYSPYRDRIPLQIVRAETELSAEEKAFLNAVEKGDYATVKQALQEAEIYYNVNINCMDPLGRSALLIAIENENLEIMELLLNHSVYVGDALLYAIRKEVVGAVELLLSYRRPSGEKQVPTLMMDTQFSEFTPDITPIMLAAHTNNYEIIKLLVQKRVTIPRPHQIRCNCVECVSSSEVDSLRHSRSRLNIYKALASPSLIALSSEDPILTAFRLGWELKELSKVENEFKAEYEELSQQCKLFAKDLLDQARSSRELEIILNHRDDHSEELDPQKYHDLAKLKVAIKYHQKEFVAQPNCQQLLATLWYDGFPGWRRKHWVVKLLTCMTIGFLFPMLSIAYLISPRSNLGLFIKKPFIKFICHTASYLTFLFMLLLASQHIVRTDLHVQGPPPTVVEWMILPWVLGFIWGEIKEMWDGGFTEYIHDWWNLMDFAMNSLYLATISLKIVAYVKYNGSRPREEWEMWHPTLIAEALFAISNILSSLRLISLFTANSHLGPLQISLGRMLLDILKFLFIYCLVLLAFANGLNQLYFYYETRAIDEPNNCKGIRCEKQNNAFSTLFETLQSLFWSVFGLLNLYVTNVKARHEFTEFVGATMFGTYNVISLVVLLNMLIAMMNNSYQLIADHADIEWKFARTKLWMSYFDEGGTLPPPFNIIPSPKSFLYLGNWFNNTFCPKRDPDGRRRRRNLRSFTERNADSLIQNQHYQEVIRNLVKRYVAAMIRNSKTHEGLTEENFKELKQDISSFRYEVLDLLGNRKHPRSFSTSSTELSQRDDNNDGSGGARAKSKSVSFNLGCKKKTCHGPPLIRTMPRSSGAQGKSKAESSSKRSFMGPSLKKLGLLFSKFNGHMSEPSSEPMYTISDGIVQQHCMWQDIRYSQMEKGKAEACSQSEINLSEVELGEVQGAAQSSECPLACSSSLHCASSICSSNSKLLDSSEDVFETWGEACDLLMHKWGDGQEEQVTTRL

MPC-5 = assay: Reno-protectant activity against protamine sulfate-induced podocytes injury in mouse MPC5 cells assessed as reduction in PS-induced podocytes rearrangement and rupture of stress fibers at 0.1 to 3 uM pretreated for 30 mins followed by stimulation with PS for 100 mins; type: functional, cell-based; conditions: dose 0.1-3 µM, time 130.0 min, DDE = dose-dependent effect
Hepatocyte = assay: Cytotoxicity against primary mouse hepatocytes assessed as reduction in cell viability at 1 to 10 uM by MTT assay; type: toxicity, cell-based; conditions: dose 1-10 µM
[2] = target: T2, Short transient receptor potential channel 3 (Homo sapiens) (UniProt Q13507); assay: Inhibition of human TRPC3 channel expressed in HEK293 cells assessed as inhibition of OAG-evoked Ca2+ entry by measuring reduction in intracellular Ca2+ level by Fluo-4 dye based FLIPR assay; type: cell-based
T2 sequence (whole entry): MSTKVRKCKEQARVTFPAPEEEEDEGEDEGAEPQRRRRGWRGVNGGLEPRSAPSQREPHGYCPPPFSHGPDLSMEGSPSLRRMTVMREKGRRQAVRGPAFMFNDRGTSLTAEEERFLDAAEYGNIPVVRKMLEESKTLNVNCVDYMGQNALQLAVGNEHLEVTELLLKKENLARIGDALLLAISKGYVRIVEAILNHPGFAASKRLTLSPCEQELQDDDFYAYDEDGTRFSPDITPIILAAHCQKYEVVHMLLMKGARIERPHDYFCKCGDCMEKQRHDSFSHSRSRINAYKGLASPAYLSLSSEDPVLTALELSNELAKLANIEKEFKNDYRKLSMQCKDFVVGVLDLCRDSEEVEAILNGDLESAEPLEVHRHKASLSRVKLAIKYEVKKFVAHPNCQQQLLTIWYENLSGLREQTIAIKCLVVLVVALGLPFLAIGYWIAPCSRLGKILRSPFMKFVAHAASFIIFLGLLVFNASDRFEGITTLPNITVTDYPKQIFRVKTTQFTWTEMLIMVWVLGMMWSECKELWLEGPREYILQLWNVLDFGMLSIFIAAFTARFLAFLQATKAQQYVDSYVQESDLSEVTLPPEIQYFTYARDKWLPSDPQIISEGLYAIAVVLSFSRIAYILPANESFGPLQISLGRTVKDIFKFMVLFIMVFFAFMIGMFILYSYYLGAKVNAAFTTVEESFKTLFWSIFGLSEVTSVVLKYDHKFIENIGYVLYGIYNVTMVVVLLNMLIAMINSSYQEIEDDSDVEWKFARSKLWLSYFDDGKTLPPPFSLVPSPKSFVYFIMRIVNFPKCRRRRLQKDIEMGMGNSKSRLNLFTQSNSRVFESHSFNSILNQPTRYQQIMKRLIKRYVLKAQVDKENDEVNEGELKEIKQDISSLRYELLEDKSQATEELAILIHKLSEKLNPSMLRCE

[3] = Cytotoxicity against mouse MPC5 cells assessed as reduction in cell viability at 1 to 10 uM by MTT assay; type: toxicity, cell-based; conditions: mpc-5, 10 µM, dose 1-10 µM
[4] = target: T1, Short transient receptor potential channel 5; assay: Inhibition of human TRPC5 channel expressed in HEK293 cells assessed as inhibition of EA-evoked channel current measured at +80 mV by whole-cell voltage clamp assay; type: cell-based
[5] = target: T3, Short transient receptor potential channel 4 (Homo sapiens) (UniProt Q9UBN4); assay: (§1) Inhibition of TRPC4 channel (unknown origin) expressed in HEK293 cells assessed as inhibition of EA-evoked Ca2+ entry by measuring reduction in intracellular Ca2+ level by Fluo-4 dye based FLIPR assay; type: cell-based; conditions: DDE = dose-dependent effect
T3 sequence (whole entry): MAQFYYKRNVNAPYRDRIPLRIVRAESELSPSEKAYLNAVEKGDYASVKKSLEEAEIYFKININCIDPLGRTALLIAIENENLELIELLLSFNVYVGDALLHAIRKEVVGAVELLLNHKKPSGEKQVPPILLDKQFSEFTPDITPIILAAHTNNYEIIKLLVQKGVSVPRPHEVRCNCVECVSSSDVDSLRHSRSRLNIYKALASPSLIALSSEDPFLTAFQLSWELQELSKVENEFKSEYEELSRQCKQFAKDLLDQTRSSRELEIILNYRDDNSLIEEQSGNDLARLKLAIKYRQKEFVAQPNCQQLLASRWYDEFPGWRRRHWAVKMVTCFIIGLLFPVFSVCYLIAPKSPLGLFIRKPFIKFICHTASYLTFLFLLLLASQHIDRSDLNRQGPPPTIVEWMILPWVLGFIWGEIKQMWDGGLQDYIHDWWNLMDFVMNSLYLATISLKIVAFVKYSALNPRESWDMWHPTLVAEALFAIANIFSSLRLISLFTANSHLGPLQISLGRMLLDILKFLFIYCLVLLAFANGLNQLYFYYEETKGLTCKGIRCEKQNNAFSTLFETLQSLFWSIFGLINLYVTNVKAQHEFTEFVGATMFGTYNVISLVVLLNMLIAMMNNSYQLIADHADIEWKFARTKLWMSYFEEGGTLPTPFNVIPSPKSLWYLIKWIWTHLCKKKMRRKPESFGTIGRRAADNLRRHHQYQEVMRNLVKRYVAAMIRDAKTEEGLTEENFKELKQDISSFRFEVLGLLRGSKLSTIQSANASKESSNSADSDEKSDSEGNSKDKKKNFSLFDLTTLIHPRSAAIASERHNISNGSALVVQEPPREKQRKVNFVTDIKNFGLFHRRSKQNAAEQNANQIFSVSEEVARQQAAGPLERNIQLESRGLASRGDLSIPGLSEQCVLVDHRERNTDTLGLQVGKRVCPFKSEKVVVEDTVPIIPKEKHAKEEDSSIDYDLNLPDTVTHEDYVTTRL

[6] = target: T4, Short transient receptor potential channel 4 (Homo sapiens, UniProt Q9UBN4); assay: as §1; type: cell-based
T4 sequence (Q9UBN4 whole entry): T3 sequence (whole entry)

| Structure (SMILES) | IC50 [1] | further results |
| --- | --- | --- |
| O=C1NC(=O)C(N2CCc3c(ncnc3Oc3ccc(F)cc3C3CCC3)C2)=C1Cl | > 10000 nM |  |
| O=C1NC(=O)C(N2CCc3c(ncnc3Oc3c(F)cccc3C(F)(F)F)C2)=C1Cl | 776 nM |  |
| Cc1nc2c(c(Oc3ccc(F)cc3C(F)(F)F)n1)CCN(C1=C(Cl)C(=O)NC1=O)C2 | 125 nM |  |
| O=C1NC(=O)C(N2CCN(Cc3ccccc3C(F)(F)F)C(=O)C2)=C1Cl | 10400 nM |  |
| O=C1NC(=O)C(N2CCc3c(ncnc3Oc3ccc(Cl)cc3C(F)(F)F)C2)=C1Cl | 314 nM |  |
| O=C1NC(=O)C(N2CCc3c(ncnc3Oc3ccc(F)cc3C3CCCC3)C2)=C1Cl | > 10000 nM |  |
| O=C1NC(=O)C(N2CCc3c(ncnc3Oc3ccc(F)cc3C(F)(F)F)C2)=C1Cl | 60 nM | Activity (MPC-5): Dde; Activity (Hepatocyte): Non-Toxic; inhibition [2]: Active; Activity [3]: Non-Toxic; IC50 [4]: 14.1 nM; inhibition [5]: Dde; IC50 [6]: 65 nM |
| CN(Cc1ccccc1C(F)(F)F)C(=O)C1CN(c2cn[nH]c(=O)c2Cl)C1 | > 10000 nM |  |
| O=C1NC(=O)C(N2CCc3c(ncnc3Oc3ccc(C(F)(F)F)cc3)C2)=C1Cl | > 10000 nM |  |
| O=C1NC(=O)C(N2CCc3ncn(Cc4ccccc4C(F)(F)F)c3C2)=C1Cl | 860 nM |  |
| C#Cc1cc(F)ccc1Oc1ncnc2c1CCN(C1=C(Cl)C(=O)NC1=O)C2 | 629 nM |  |
| O=C1NC(=O)C(N2CCc3c(ncnc3Oc3cccc(C(F)(F)F)c3)C2)=C1Cl | > 10000 nM |  |
| Cn1c(N2CCN(Cc3ccccc3C(F)(F)F)C(=O)C2)cc(=O)n(C)c1=O | > 10000 nM |  |
| O=C1CN(c2cn[nH]c(=O)c2)CCN1Cc1ccccc1C(F)(F)F | > 10000 nM |  |
| CCc1nc2c(c(Oc3ccc(F)cc3C(F)(F)F)n1)CCN(C1=C(Cl)C(=O)NC1=O)C2 | 798 nM |  |
| O=C1NC(=O)C(N2CCc3c(cnn3Cc3ccccc3C(F)(F)F)C2)=C1Cl | 955 nM |  |
| O=C1CN(c2cn[nH]c(=O)c2Cl)CCN1Cc1ccccc1C(F)(F)F | 211 nM | Activity (MPC-5): Dde; Activity (Hepatocyte): Non-Toxic; Activity [3]: Non-Toxic; IC50 [4]: 50.1 nM |

| Structure (SMILES) | IC50 [1] | further results |
| --- | --- | --- |
| N#Cc1cc(F)ccc1Oc1ncnc2c1CCN(C1=C(Cl)C(=O)NC1=O)C2 | 664 nM |  |
| CN(CC(=O)NCc1ccccc1C(F)(F)F)c1cn[nH]c(=O)c1Cl | > 10000 nM |  |
| O=C1NC(=O)C(N2CCc3c(ncnc3Oc3ccc(F)cc3Cl)C2)=C1Cl | 280 nM |  |
| O=C1NC(=O)C(N2CCc3c(ncnc3Oc3ccccc3Cl)C2)=C1Cl | 654 nM |  |
| O=C(CC1CN(c2cn[nH]c(=O)c2Cl)C1)NCc1ccccc1C(F)(F)F | > 10000 nM |  |
| O=C1NC(=O)C(N2CCc3c(nc(C4CC4)nc3Oc3ccc(F)cc3C(F)(F)F)C2)=C1Cl | 2080 nM |  |
| O=C1NC(=O)C(N2CCc3c(ncnc3Oc3ccc(F)cc3CC(F)(F)F)C2)=C1Cl | 2540 nM |  |
| Cn1c(N2CCN(Cc3ccccc3C(F)(F)F)C(=O)C2)cc(=O)[nH]c1=O | > 10000 nM |  |
| CCc1ccccc1Oc1ncnc2c1CCN(C1=C(Cl)C(=O)NC1=O)C2 | 1070 nM |  |
| O=C(NCc1ccccc1C(F)(F)F)C1CN(c2cn[nH]c(=O)c2Cl)C1 | > 10000 nM |  |
| O=C1NC(=O)C(N2CCc3c(ncnc3Oc3ccccc3C(F)(F)F)C2)=C1Cl | 452 nM |  |
| O=C1NC(=O)C(N2CCc3c(ncnc3Oc3ccc(F)cc3C3CC3)C2)=C1Cl | 111 nM |  |
| O=C1CN(c2cn[nH]c(=O)c2Cl)CN1Cc1ccccc1C(F)(F)F | > 10000 nM |  |
| O=C1CN(c2cc(=O)[nH]c(=O)[nH]2)CCN1Cc1ccccc1C(F)(F)F | > 10000 nM |  |
| Cn1ncc(N2CCN(Cc3ccccc3C(F)(F)F)C(=O)C2)c(Cl)c1=O | > 10000 nM |  |
| O=C1CN(c2cc(=O)[nH]cn2)CCN1Cc1ccccc1C(F)(F)F | > 10000 nM |  |
| Cc1cc(F)ccc1Oc1ncnc2c1CCN(C1=C(Cl)C(=O)NC1=O)C2 | > 10000 nM |  |
